Measurements taken from patent publication US20110306554A1, “PEPTIDE CAPABLE OF BINDING TO IMMUNOGLOBULIN” (priority 2009, published 2011).
Entries after “also recorded” stand apart in the source; their conditions may differ.

Key:
[1] = tested on: Cy3-labeled goat anti-mouse immunoglobulin (IgG); test: Peptide array of C1q subunit 15-mers probed with Cy3-labeled immunoglobulin; type: binding; details: peptide spots on glass array, 4° C., 12 hours, background fluorescence intensity is 2.6
From the text: The amino acid sequences of the A, B, and C subunit chains of human C1q, are shown in SEQ ID NOs: 17 to 19, and the nucleotide sequences in SEQ ID NOs: 20 to 22. Based on each of the amino acid sequences, sequences having 15 amino acids (residues) from each subunit and shifted at intervals of three amino acids, were synthesized on a glass array as synthetic peptides (Peptide Nos. 1 to […], and 193 to 270 for the A, B, and C chains, respectively). The synthesis of each peptide was carried out at a specific location on the array, so as to prepare a peptide array which included the synthetic peptides covering the entire amino acid sequences of the subunits of C1q. The preparation of the array was outsourced to JPT Peptide Technologies GmbH.
To the peptide array was applied 330 μl of an Cy3-labeled goat anti-mouse immunoglobulin (IgG) (1 mg/ml; Zymed Laboratories) diluted 1000-fold with PBS (10 mM phosphate buffer, pH 7.0, 0.1 M NaCl), and the array was sealed and then incubated at 4° C. for 12 hours. After that, the array was washed once with methanol and then 5 times with Milli-Q water for 5 minutes each. The array slide was centrifuged and dried, and scanned with a fluorescence scanner (Agilent DNA microarray scanner; Agilent Technologies), so that fluorescence intensity was quantified at the respective peptide spots on the array using a software (Feature Extraction software; Agilent Technologies). Several spots displaying strong fluorescence intensities were detected. […] Note that in the description, the amino acids are denoted by the one-letter code known in the art.

[2] = tested on: type III allergic (Arthus) reaction-induced rats; test: Immune-complex disease suppression in type III allergic (Arthus) reaction-induced rats, Part 1; type: in vivo; details: intraperitoneal administration, 10 or 100 mg/kg
Method: Using sixty-four 7-week-old male Slc:Wistar rats, examinations were made on peptides R1, R2, and R5, in two series of examinations, each using a different method of administration (intraperitoneal administration and tail vein administration). Acclimation was carried out by giving normal solid chow CRF-1 for a period of 9 days or longer. The back of the animals was shaved on the day prior to administration, and a mixed solution of OVA and Evans blue dye was administered into the tail vein on the day of administration. Each peptide solution was administered intraperitoneally or into the tail vein 30 minutes or 50 minutes after the administration of the mixed solution of OVA and Evans blue dye, respectively. For intracutaneous administration of an anti-OVA solution, […] was intracutaneously administered in the back of animals at a dose of 0.1 ml/site 30 minutes or 10 minutes after the administration of the tested substance in the case of intraperitoneal or intravenous administration, respectively, so as to generate a local Arthus reaction. After the reaction was allowed to be generated for 4 hours, the animals were euthanized, the blood was removed thoroughly, and then the dorsal skin was exfoliated. The Arthus reaction sites on the exfoliated skin were punched out, and the Evans blue dye was extracted from the punched skin overnight. The amount of dye leakage was quantified by measuring absorbance for the Evans blue dye with a spectrophotometer and using a calibration curve (see, H. Okamoto, Y. Iwahisa, and M. Terasawa, “Suppression of the Arthus reaction by Y-24180, a potent and specific antagonist of platelet-activating factor”, Agents Actions, 35:149-158 (1992), for experimental procedures used in Example 4).
A predetermined amount of each peptide (peptides R1, R2, and R5) was dissolved in physiological saline to make a 20 mg/ml solution. A 2 mg/ml solution was prepared by diluting the 20 mg/ml solution 10-fold with physiological saline. A 5 mg/ml solution was prepared by dissolving each peptide in a predetermined amount in physiological saline to make a prepared solution.
A mixed solution of OVA and Evans blue dye was administered into the tail vein at a dose of 2 ml/kg. Each peptide solution was administered intraperitoneally or into the tail vein 30 minutes or 50 minutes after the administration of the mixed solution of OVA and Evans blue dye, respectively. For intracutaneous administration of an anti-OVA solution, […] was intracutaneously administered in the back of animals at a dose of 0.1 mL/site 30 minutes or 10 minutes after the administration of the tested substance in the case of intraperitoneal or intravenous administration, respectively, so as to generate a local Arthus reaction. Intracutaneous administration was conducted at 2 sites for PBS and at 2 sites for the anti-OVA solution per animal. After the reaction was allowed to be generated for 4 hours, the animals were euthanized by decapitation under ether anesthesia, the blood was removed thoroughly, and then the dorsal skin was exfoliated. The Arthus reaction sites on the exfoliated skin were punched out and subjected to dye extraction.
Several cuttings were made in the skin strips that were punched out with a punch. […] The amount of dye leakage was calculated from a calibration curve of known amounts of the dye.
The mean value (mean)±standard deviation (SD) for each group was calculated with body-weight measurements and amounts of dye leakage. […]

STGKFTCKVPGLYYF (Immunoglobulin binding peptide) [R5]
Fluorescence intensity [1]: 65,311
effect of immune-complex disease suppression (dye leakage) [2]: clear and satisfactory effects of immune-complex disease suppression; also recorded: suppressed
